Assay results: patent publication US20250228239A1, “MOLECULES HAVING PESTICIDAL UTILITY, AND INTERMEDIATES, COMPOSITIONS, AND PROCESSES, RELATED THERETO” (priority 2024, published 2025)
Read-outs that look alike come from different tables or passages of the source.

Assays:
Format in all cases: in vivo
[1] = system: Beet Armyworm (Spodoptera exigua, LAPHEG); experiment: Bioassays on Beet Armyworm (BAW), 128-well diet tray assay; conditions: Spodoptera exigua
Summary of the method: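 Mortality of second-instar larvae (1–5/well) on artificial diet treated with 50 μg/cm^2 compound, read after 5–7 days at 25° C.; values are means of eight wells.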

[2] = system: Cabbage Looper (Trichoplusia ni, TRIPNI); experiment: Bioassays on Cabbage Looper (CL), 128-well diet tray assay; conditions: Trichoplusia ni
Summary of the method: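 Each of eight wells receives artificial diet treated at 50 μg/cm^2 with the test molecule, then one to five second-instar larvae. Incubation runs five to seven days at 25° C with a 14:10 light-dark cycle under vented covers. Mortality is scored per well as a percentage and averaged.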

[3] = system: Yellow Fever Mosquito (Aedes aegypti, AEDSAE); conditions: for YFM rating: Table ABC / ABC-DP rating
Procedure: Certain molecules disclosed in this document were tested against YFM using procedures described in the following paragraph. In the reporting of the results, the “GPA & YFM Rating Table” was used (See Table Section).
Master plates containing 400 μg of a molecule dissolved in 100 μL of dimethyl sulfoxide (DMSO) (equivalent to a 4000 ppm solution) are used. A master plate of assembled molecules contains 15 μL per well. To this plate, 135 μL of a 90:10 water/acetone mixture is added to each well. A robot (Biomek® NXP Laboratory Automation Workstation) is programmed to dispense 15 μL aspirations from the master plate into an empty 96-well shallow plate (“daughter” plate). There are 6 reps (“daughter” plates) created per master. The created “daughter” plates are then immediately infested with YFM larvae.
The day before plates are to be treated, mosquito eggs are placed in Millipore water containing liver powder to begin hatching (4 g into 400 mL). After the “daughter” plates are created using the robot, they are infested with 220 μL of the liver powder/larval mosquito mixture (about 1 day-old larvae). After plates are infested with mosquito larvae, a non-evaporative lid is used to cover the plate to reduce drying. Plates are held at room temperature for 3 days prior to grading. After 3 days, each well is observed and scored based on mortality. The results are indicated in the table entitled “Table ABC: Biological Results” (See Table Section).

[4] = Beet Armyworm, Table ABC / ABC-DP rating, read-out: BAW rating
[5] = Cabbage Looper, Table ABC / ABC-DP rating, read-out: CL rating
[6] = Table ABC: Biological Results, species BAW, read-out: BAW
[7] = Table ABC: Biological Results, species CL, read-out: CL
[8] = Table ABC: Biological Results, species YFM
[9] = Beet Armyworm, rating class, read-out: BAW
[10] = Cabbage Looper, rating class, read-out: CL
[11] = Yellow Fever Mosquito, rating class

Row | Structure (SMILES) | pest or weed control at 50 µg/cm2 [2, 5] [%] | YFM rating ([3]; Yellow Fever Mosquito) | pest or weed control at 50 µg/cm2 [1, 6] [%] | pest or weed control at 50 µg/cm2 [2, 7] [%] | YFM [3, 8] | also measured
1 | O=C(NCCNC(=O)C(F)(F)F)c1cc(NC(=O)[C@H]2[C@H](c3cc(Cl)cc(Cl)c3)C2(Cl)Cl)ccc1Cl (relative stereo) [F2066, trans-2-Chloro-5-(2,2-dichloro-3-(3,5-dichlorophenyl)cyclopropane-1-carboxamido)-N-(2-(2,2,2-trifluoroacetamido)ethyl)benzamide] | 50 to 100 | A (80–100) | – | – | – | pest or weed control at 50 µg/cm2 [1, 4]: 50 to 100%
2 | O=C(Nc1ccc(F)cc1F)c1cc(NC(=O)[C@H]2[C@H](c3cc(Cl)cc(S(F)(F)(F)(F)F)c3)C2(Cl)Cl)ccc1Cl (relative stereo) [F1232, trans-2-chloro-5-(2,2-dichloro-3-(3-chloro-5-(pentafluoro-λ^6-sulfanyl)phenyl)cyclopropane-1-carboxamido)-N-(2,4-difluorophenyl)benzamide] | – | – | 50 to 100 | 50 to 100 | A (80–100) | –
3 | O=C(NNCc1ccc(F)cc1F)c1cc(NC(=O)[C@H]2[C@H](c3cc(Cl)cc(Cl)c3)C2(Cl)Cl)ccc1Cl (relative stereo) [F2547, trans-2,2-dichloro-N-(4-chloro-3-(2-(2,4-difluorobenzyl)hydrazine-1-carbonyl)phenyl)-3-(3,5-dichlorophenyl)cyclopropane-1-carboxamide] | 50 to 100 | A (80–100) | – | – | – | pest or weed control at 50 µg/cm2 [1, 4]: 50 to 100%
4 | O=C(Nc1ccc(F)cc1)c1cc(NC(=O)[C@H]2[C@H](c3cc(Cl)cc(Cl)c3)C2(F)F)ccc1Cl (relative stereo) [F1057, trans-2-Chloro-5-(3-(3,5-dichlorophenyl)-2,2-difluorocyclopropane-1-carboxamido)-N-(4-fluorophenyl)benzamide] | – | – | 50 to 100 | 50 to 100 | A (80–100) | –
5 | CCOC(C)C(=O)Nc1c(F)ccc(NC(=O)c2cc(NC(=O)[C@H]3[C@H](c4cc(Cl)c(Cl)c(Cl)c4)C3(Cl)Cl)ccc2Cl)c1F (stereo partly drawn) [F1645, 2-Chloro-5-((1R,3R)-2,2-dichloro-3-(3,4,5-trichlorophenyl)cyclopropane-1-carboxamido)-N-(3-(2-ethoxypropanamido)-2,4-difluorophenyl)benzamide] | – | – | – | – | – | pest or weed control at 50 µg/cm2 [1, 9]: 50 to 100%; pest or weed control at 50 µg/cm2 [2, 10]: 50 to 100%; YFM [3, 11]: A (80–100)
6 | O=C(Nc1ccc(F)c(NC(=O)C(F)F)c1F)c1cc(NC(=O)[C@H]2[C@H](c3cc(Cl)c(Cl)c(Cl)c3)C2(Cl)Cl)cc(F)c1F [F1437, 5-((1R,3R)-2,2-Dichloro-3-(3,4,5-trichlorophenyl)cyclopropane-1-carboxamido)-N-(3-(2,2-difluoroacetamido)-2,4-difluorophenyl)-2,3-difluorobenzamide] | – | – | – | – | – | pest or weed control at 50 µg/cm2 [1, 9]: 50 to 100%; pest or weed control at 50 µg/cm2 [2, 10]: 50 to 100%; YFM [3, 11]: A (80–100)
7 | CN(C(=O)c1cc(NC(=O)[C@H]2[C@H](c3ccc(F)c(C(F)(F)F)c3)C2(Cl)Cl)ccc1Cl)c1ccc(F)c(NC(=O)COC(F)(F)F)c1F [F1796, 2-Chloro-5-((1R,3R)-2,2-dichloro-3-(4-fluoro-3-(trifluoromethyl)phenyl)cyclopropane-1-carboxamido)-N-(2,4-difluoro-3-(2-(trifluoromethoxy)acetamido)phenyl)-N-methylbenzamide] | 50 to 100 | A (80–100) | – | – | – | pest or weed control at 50 µg/cm2 [1, 4]: 50 to 100%
8 | CCNC(=O)c1cc(NC(=O)[C@H]2[C@H](c3ccc(F)c(C(F)(F)F)c3)C2(Cl)Cl)c(F)cc1Cl [F2083, 2-Chloro-5-((1R,3R)-2,2-dichloro-3-(4-fluoro-3-(trifluoromethyl)phenyl)cyclopropane-1-carboxamido)-N-ethyl-4-fluorobenzamide] | 50 to 100 | B (More than 0 – Less than 80) | – | – | – | –
9 | Nc1c(F)ccc(NC(=O)c2cc(NC(=O)[C@H]3[C@H](c4ccc(S(F)(F)(F)(F)F)cc4)C3(Cl)Cl)ccc2Cl)c1F (relative stereo) [F1142, trans-N-(3-Amino-2,4-difluorophenyl)-2-chloro-5-(2,2-dichloro-3-(4-(pentafluoro-λ^6-sulfanyl)phenyl)cyclopropane-1-carboxamido)benzamide] | – | – | 50 to 100 | 50 to 100 | A (80–100) | –
10 | CCOC(=O)NNC(=O)c1cc(NC(=O)[C@H]2[C@H](c3cc(Cl)cc(Cl)c3)C2(Cl)Cl)ccc1Cl (relative stereo) [F2542, trans-ethyl 2-(2-chloro-5-(2,2-dichloro-3-(3,5-dichlorophenyl)cyclopropane-1-carboxamido)benzoyl)hydrazine-1-carboxylate] | 50 to 100 | B (More than 0 – Less than 80) | – | – | – | pest or weed control at 50 µg/cm2 [1, 4]: 50 to 100%
11 | CC(=O)Nc1c(F)ccc(NC(=O)c2cc(NC(=O)[C@H]3[C@H](c4ccc(F)c(C(F)(F)F)c4)C3(Cl)Cl)ccc2Cl)c1Cl [F1161, N-(3-Acetamido-2-chloro-4-fluorophenyl)-2-chloro-5-((1R,3R)-2,2-dichloro-3-(4-fluoro-3-(trifluoromethyl)phenyl)cyclopropane-1-carboxamido)benzamide] | – | – | 50 to 100 | 50 to 100 | A (80–100) | –
12 | O=C(Nc1ccc(F)c(NC(=O)C(Cl)Cl)c1F)c1cc(NC(=O)[C@H]2[C@H](c3ccc(Cl)c(Cl)c3)C2(Cl)Cl)ccc1Cl [F1252, 2-Chloro-5-((1R,3R)-2,2-dichloro-3-(3,4-dichlorophenyl)cyclopropane-1-carboxamido)-N-(3-(2,2-dichloroacetamido)-2,4-difluorophenyl)benzamide] | – | – | 50 to 100 | 50 to 100 | A (80–100) | –
13 | C=C(F)c1cc(NC(=O)c2cc(NC(=O)[C@H]3[C@H](c4cc(Cl)cc(Cl)c4)C3(Cl)Cl)ccc2Cl)ccc1F (relative stereo) [F1318, trans-2-Chloro-5-(2,2-dichloro-3-(3,5-dichlorophenyl)cyclopropane-1-carboxamido)-N-(4-fluoro-3-(1-fluorovinyl)phenyl)benzamide] | – | – | 50 to 100 | 50 to 100 | A (80–100) | –
14 | CC(C)COC(C)C(=O)Nc1c(F)ccc(NC(=O)c2cc(NC(=O)[C@H]3[C@H](c4ccc(F)c(C(F)(F)F)c4)C3(Cl)Cl)ccc2Cl)c1F (stereo partly drawn) [F1746, 2-Chloro-5-((1R,3R)-2,2-dichloro-3-(4-fluoro-3-(trifluoromethyl)phenyl)cyclopropane-1-carboxamido)-N-(2,4-difluoro-3-(2-isobutoxypropanamido)phenyl)benzamide] | – | – | – | – | – | pest or weed control at 50 µg/cm2 [1, 9]: 50 to 100%; pest or weed control at 50 µg/cm2 [2, 10]: 50 to 100%; YFM [3, 11]: A (80–100)
15 | Cc1cc(NCc2ccc(Cl)cc2)ccc1NC(=O)c1cc(NC(=O)[C@H]2[C@H](c3cc(Cl)cc(Cl)c3)C2(Cl)Cl)ccc1Cl (relative stereo) [F1010, trans-2-chloro-N-(4-((4-chlorobenzyl)amino)-2-methylphenyl)-5-(2,2-dichloro-3-(3,5-dichlorophenyl)cyclopropane-1-carboxamido)benzamide] | – | – | 50 to 100 | 50 to 100 | A (80–100) | –
16 | O=C(Nc1ccc(F)c(NC(=O)C(F)(F)C(F)(F)C(F)(F)F)c1F)c1cc(NC(=O)[C@H]2[C@H](c3ccc(F)c(C(F)(F)F)c3)C2(Cl)Cl)ccc1Cl [F1450, 2-Chloro-5-((1R,3R)-2,2-dichloro-3-(4-fluoro-3-(trifluoromethyl)phenyl)cyclopropane-1-carboxamido)-N-(2,4-difluoro-3-(2,2,3,3,4,4,4-heptafluorobutanamido)phenyl)benzamide] | – | – | – | – | – | pest or weed control at 50 µg/cm2 [1, 9]: 50 to 100%; pest or weed control at 50 µg/cm2 [2, 10]: 50 to 100%; YFM [3, 11]: A (80–100)
17 | CCNC(=O)c1cc(NC(=O)[C@H]2[C@H](c3ccc(F)c(Cl)c3)C2(Cl)Cl)cc(F)c1OC (relative stereo) [F2057, trans-5-(2,2-Dichloro-3-(3-chloro-4-fluorophenyl)cyclopropane-1-carboxamido)-N-ethyl-3-fluoro-2-methoxybenzamide] | 50 to 100 | A (80–100) | – | – | – | –
